Experimental data published in patent publication US9255080B2, “Quinazolinedione derivatives as PARP inhibitors” (Janssen Pharmaceutica NV, priority 2004, dated 2016).
Read-outs that look alike come from different tables or passages of the source.

Tests used:
TANK-2 enzyme = target: T1, TANK-2 enzyme (Homo sapiens, UniProt Q9H2K2); assay: In vitro scintillation proximity assay (SPA) for TANK-2 inhibitory activity; type: biochemical
T1 construct: made in house
T1 sequence (Q9H2K2 1-1166): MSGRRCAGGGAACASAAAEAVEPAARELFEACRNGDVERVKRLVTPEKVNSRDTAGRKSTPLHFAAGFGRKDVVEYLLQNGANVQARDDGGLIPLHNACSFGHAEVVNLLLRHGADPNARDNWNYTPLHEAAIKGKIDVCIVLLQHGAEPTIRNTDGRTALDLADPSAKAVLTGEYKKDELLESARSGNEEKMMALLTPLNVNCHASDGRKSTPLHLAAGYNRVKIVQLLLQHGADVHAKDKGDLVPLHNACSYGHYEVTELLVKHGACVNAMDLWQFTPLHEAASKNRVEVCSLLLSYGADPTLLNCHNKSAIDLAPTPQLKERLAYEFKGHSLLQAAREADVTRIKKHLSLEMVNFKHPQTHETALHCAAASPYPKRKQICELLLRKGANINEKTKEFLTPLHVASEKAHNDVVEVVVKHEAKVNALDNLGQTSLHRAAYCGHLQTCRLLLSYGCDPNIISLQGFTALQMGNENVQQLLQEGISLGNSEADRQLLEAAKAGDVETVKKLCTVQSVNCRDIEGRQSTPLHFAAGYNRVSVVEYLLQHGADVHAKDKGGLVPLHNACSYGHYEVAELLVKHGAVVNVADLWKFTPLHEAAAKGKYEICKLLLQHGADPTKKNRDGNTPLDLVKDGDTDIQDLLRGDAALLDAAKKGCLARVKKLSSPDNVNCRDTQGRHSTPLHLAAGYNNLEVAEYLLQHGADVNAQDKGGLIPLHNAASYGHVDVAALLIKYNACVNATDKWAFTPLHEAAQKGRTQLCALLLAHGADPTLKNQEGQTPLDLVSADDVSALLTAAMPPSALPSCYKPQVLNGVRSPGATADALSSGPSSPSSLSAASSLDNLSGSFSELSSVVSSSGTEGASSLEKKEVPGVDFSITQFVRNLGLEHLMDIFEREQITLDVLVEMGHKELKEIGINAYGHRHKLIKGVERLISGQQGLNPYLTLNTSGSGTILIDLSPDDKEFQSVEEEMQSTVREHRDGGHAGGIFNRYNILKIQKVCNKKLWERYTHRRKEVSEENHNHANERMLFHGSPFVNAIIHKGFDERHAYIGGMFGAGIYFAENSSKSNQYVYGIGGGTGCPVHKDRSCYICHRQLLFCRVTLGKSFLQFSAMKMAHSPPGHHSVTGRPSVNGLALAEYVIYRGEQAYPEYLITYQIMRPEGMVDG
Method: In Vitro Scintillation Proximity Assay (SPA) for TANK-2 Inhibitory Activity
Compounds of the present invention were tested in an in vitro assay based on SPA technology with Ni Flash plates (96 or 384 well).
In principle, the assay relies upon SPA technology for the detection of auto-poly(ADP-ribosyl)ation of TANK-2 protein using [^3H]-nicotinamide adenine dinucleotide ([^3H]-NAD^+) as ADP-ribosyl donor.
A stock solution of [^3H]-NAD^+/NAD was made by adding 64.6 μl of [^3H]-NAD^+ (0.1 mCi/ml, supplier: Perkin Elmer) and 46.7 μl NAD-stock (10.7 mM, stored at −20° C., supplier Roche) to 1888.7 μl assay buffer (60 mM Tris/HCl, pH 7.4; 0.9 mM DTT; 6 mM MgCl2). The TANK-2 enzyme was produced as described in EP1238063. 60 μl of assay buffer, together with 1 μl of compound in DMSO, 20 μl of [^3H]-NAD^+/NAD and 20 μl of TANK-2 enzyme (final concentration 6 μg/ml) was added per well into a 96-well Ni-coated flash plate (Perkin Elmer). After incubation of the mixture for 120 min. at room temperature, the reaction was terminated by adding 60 μl of stopsolution (42.6 mg NAD in 6 ml H2O). The plates were covered with a plate sealer and placed in a TopCountNXT™ (Packard) for scintillation counting. Values were expressed as counts per minute (cpm). For each experiment, controls (containing TANK-2 enzyme and DMSO without compound), a blank incubation (containing DMSO but no TANK-2 enzyme or compound) and samples (containing TANK-2 enzyme and compound dissolved in DMSO) were run in parallel. All compounds tested were dissolved and eventually further diluted in DMSO. In first instance, compounds were tested at a concentration of 10^−5M. […] In each test, the blank value was subtracted from both the control and the sample values. The control sample represented maximal TANK-2 enzyme activity. For each sample, the amount of cpm was expressed as a percentage of the mean cpm value of the controls. When appropriate, IC50-values (concentration of the drug, needed to reduce the TANK-2 enzyme activity to 50% of the control) were computed using linear interpolation between the experimental points just above and below the 50% level. Herein the effects of test compounds are expressed as pIC50 (the negative log value of the IC50-value). As reference compounds, 3-aminobenzamide and 4-amino-1,8-naphthalimide were included to validate the SPA assay. Herein the assay was described using 96-well plates. In the assay using 384-well plates the same final concentrations were used and volumes were adapted.

[1] = auto-poly(ADP-ribosyl)ation, [3H]-NAD+, 96-well results if available, otherwise 384-well, read-out: in vitro SPA assay TANK-2 pIC50 (converted)

| Structure (SMILES) | IC50 (TANK-2 enzyme; [1]) [µM] | melting point [°C] | IC50 (TANK-2 enzyme) [µM] |
| --- | --- | --- | --- |
| O=c1[nH]c(=O)n(C2CCNCC2)c2ccccc12 [Compound 1] | > 10 | 253.7 |  |
| O=c1[nH]c(=O)n(CCCN2CCC(c3c[nH]c4ccccc34)CC2)c2ccccc12 [Compound 3] |  | 216.8 | > 10 |
| O=c1[nH]c(=O)n(CCN2CCC(O)(c3ccc(Cl)cc3)CC2)c2ccccc12 [Compound 6] | 1.38 |  |  |
| O=c1[nH]c(=O)n(CCCN2CCC(O)(c3ccc(Cl)cc3)CC2)c2ccccc12 [Compound 7] | > 10 |  |  |

Now from value to molecule, other results behind:

| IC50 (TANK-2 enzyme; [1]) [µM] | Structure (SMILES) | melting point [°C] | IC50 (TANK-2 enzyme) [µM] |
| --- | --- | --- | --- |
| > 10 | O=c1[nH]c(=O)n(C2CCN(CC(O)C3CCc4ccccc4O3)CC2)c2ccccc12 (stereo in doubt) [Compound 9, 1-[1-[(2S)-2-[(2R)-3,4-dihydro-2H-1-benzopyran-2-yl]-2-hydroxyethyl]-4-piperidinyl]-2,4(1H,3H)-quinazolinedione] |  |  |
| > 10 | O=C(CCCN1CCC(n2c(=O)[nH]c(=O)c3ccccc32)CC1)c1ccc(F)cc1 [Compound 2] | 195 |  |
| 7.57 | O=c1[nH]c(=O)n(C2CCN(CCCn3c(=O)[nH]c4ccccc43)CC2)c2ccccc12 [Compound 5] |  |  |
| 7.19 | O=C(c1ccc(F)cc1)C1CCN(CCn2c(=O)[nH]c(=O)c3ccccc32)CC1 [Compound 10, 1-[2-[4-(4-fluorobenzoyl)-1-piperidinyl]ethyl]-2,4-(1H,3H)-quinazolinedione] |  |  |
| > 10 | O=C(c1ccc(F)cc1)C1CCN(CCCn2c(=O)[nH]c(=O)c3ccccc32)CC1 [Compound 11, 1-[3-[4-(4-fluorobenzoyl)-1-piperidinyl]propyl]-2,4-(1H,3H)-quinazolinedione] |  |  |
